Experimental data published in US20240391876A1 (priority 2021, published 2024).

Columns and labels:
COVID-19 [1] = assay: Oral administration of quinacrine to a COVID-19 patient (Example 3); assay type: in vivo, human
Procedure: The following example describes treatment strategies for COVID-19 involving an oral administration of Quinacrine.
Recently, a COVID-19 test for a person has come back positive. […] After a week at the hospital, the patient's symptoms show no signs of improvement. The doctors at the hospital prescribe to the patient an initial 200 mg dose orally every 6 hours for 5 doses, followed by 100 mg 3 times a day for 6 days. Alternatively, 100 mg is orally administered to the patient after meals 3 times a day for 5 to 7 days. After a week and a half of taking quinacrine daily, the patient's symptoms improve. […] The patient is released from the hospital and is told to stay in self-isolation for another week.

SARS-COV-2 = assay: Cytopathic effect (CPE) assay against COVID-19 in Vero E6 cells, neutral red uptake; assay type: cell-based; details: 2 μg/mL quinacrine, 120 h p.i., at the 30% cytotoxic concentration
Procedure: The cytoprotective effect of quinacrine was determined by the cell viability, which is measured by the uptake of neutral red dye at A540.
In this study, the antiviral efficiency of quinacrine was evaluated against COVID-19 in vitro. Antiviral activity was evaluated using a cytopathic effect (CPE) assay, which determines the ability of the compound to prevent viral CPE in African green monkey kidney cells, Vero E6. Four dilutions of the test compound were evaluated, and the effective antiviral concentration was determined by regression analysis. The cytotoxicity of the test compound was determined in parallel by the neutral red cell cytotoxicity assay, a common method used to detect cell viability or drug cytotoxicity. CPE was determined by the uptake of neutral red dye. Quinacrine protects more than 80% of the infected cells from the cytopathic effects caused by COVID-19 at 2 μg/mL concentration (FIG. 8). The tissue distribution of quinacrine was investigated in a previous study by treating mice daily by oral gavage with 30 mg/kg of quinacrine (35% v/v ethanol in distilled water) dissolved in 100 μL total volume for 28 days.

RET G-quadruplex = assay: Taq DNA polymerase stop assay; assay type: biochemical; details: quinacrine 0, 0.5, 1.0 and 2.0 μM
Procedure: DNA polymerase stop assay was performed at increasing concentrations of each drug. Lanes M represents the di-deoxy sequencing G-reactions with the same template, which serves as the marker to locate the exact stop site. Bands P, S, and F represent the position of the free primer, stop products by G-quadruplex structures, and full-length products, respectively, on the gel.
The G4-stabilizing effect of quinacrine was validated with the RET G4 as a model G4 using a DNA polymerase stop assay and CD spectroscopic studies. In this assay, the ligand mediated stabilization of the G-quadruplex structure arising from the DNA template prevents the progression of the Taq DNA polymerase during primer extension.

[2] = mice; 30 mg/kg daily oral gavage; after 28 d of treatment; cited from earlier work
COVID-19 [3] = assay: Intravenous administration of quinacrine to a COVID-19 patient (Example 2); assay type: in vivo, human
Procedure: The following example describes treatment strategies for COVID-19 involving an intravenous administration of Quinacrine to a patient.
A person wakes up one morning with a fever of 102.4° F. and a tightness in their chest. They are an essential hospital worker and so believes they may have contracted COVID-19. Therefore, they call their primary care physician to determine their next steps. The primary care physician decides that they should be brought in for testing since they are at a higher risk for complications because the patient has severe asthma. The person gets a nose swab for the test. The doctor mentions that they will call the patient with the results as soon as possible. For now, the person is told to self-isolate and to monitor any changes in symptoms, calling if things get progressively worse. Quickly the person's condition deteriorates, and they begin to experience difficulty breathing and pressure in their chest. The doctor admits them to the ICU of the hospital because they require supplemental oxygen to maintain their oxygen levels. Shortly after being admitted to the ICU, the result of their test comes back positive for COVID-19. The ICU doctor gives the patient an intravenous injection of 200 mg initially every 6 hours for 5 doses, followed by 100 mg 3 times a day for 6 days. Alternatively, 100 mg is administered via IV infusion 3 times a day for 5 to 7 days. […]

[4] = system: Influenza A/California/07/2009 (H1N1); assay: Cytopathic effect (CPE) assay against Influenza A (H1N1), neutral red uptake; assay type: cell-based, Influenza A virus; details: 2 μg/mL quinacrine; three days incubation
[5] = system: COVID-19 RNA G4s (SG1 and SG2); assay: UV-Vis absorption spectra of quinacrine with RNA G4; assay type: binding, SARS-COV-2; details: SG1, SG2 at different concentrations; 10 mM Tris-HCl pH 7.6, 5 mM NaCl, 50 mM KCl
From the text: UV-Vis spectroscopy is the most common and convenient technique to study the interaction between small molecules with nucleic acids, including RNA G4. Molecules containing aromatic chromophore groups interact with RNA G4, and the molecular interaction can be studied based on the changes in the absorption spectra. The hypochromic effect is a spectral property for RNA G4-drug interactions that are closely related to the G4 structure. […] With the addition of G4 RNA, the intensity at both 350 nm and 450 nm bands decreased, inducing the hypochromicity at these wavelengths (FIG. 7). This can be attributed to the decrease in the number of chromophores in solution due to the interaction of quinacrine with RNA G4.

COVID-19 and influenza = assay: Oral administration of quinacrine for prevention of COVID-19 and influenza (Example 5); assay type: in vivo, human; details: 300 mg orally twice a day for a month
Procedure: The following example describes prevention strategies for COVID-19 and influenza involving an oral administration of Quinacrine.
A person wants to prevent getting sick during the upcoming winter season. Therefore, they schedule an appointment with their primary care physician to discuss their options. At the appointment, the doctor recommends taking a 300 mg pill of quinacrine orally twice a day for the next month.

RET G4 = assay: CD spectroscopy and CD melting curve of RET G4; assay type: binding
Procedure: In both graphs in FIG. 6, at the 260 wavelength lines in descending order are 20° C., 30° C., 40° C., 50° C., 60° C., 70° C., 80° C., and 90° C.
Quinacrine was further investigated as to whether it stabilizes the RET G4 structure using circular dichroism (CD) spectroscopic analysis. […] Next, the thermal stability of the G-quadruplex structure was examined by monitoring the CD melting curve in the absence and presence of quinacrine (5 equivalent) at increasing temperatures.

For `CCN(CC)CCCC(C)Nc1c2ccc(Cl)cc2nc2ccc(OC)cc12` (centres unmarked) [quinacrine], the side effects (COVID-19 [1]; oral quinacrine, patient) was “No side effects”, the clinical outcome (COVID-19 [1]; person, oral 200 mg every 6 hours for 5 doses, then 100 mg 3 times a day for 6 days) was “tests negative for COVID-19” and the “reduction of CPE due to SARS-COV-2 / protection of infected cells from cytopathic effects” value (SARS-COV-2) was “more than 80%”. For the same compound, the “amount of arrested product (stop product by G-quadruplex)” value (RET G-quadruplex) was “dose-dependent increase”, the “mean concentration in whole blood” value [2] was 470 ng/mL and the mean lung concentration [2] was 2600 ng/mL. The side effects (COVID-19 [3]; intravenous quinacrine, patient) was “No side effects”, the clinical outcome (COVID-19 [3]; person, intravenous 200 mg every 6 hours for 5 doses, then 100 mg 3 times a day for 6 days, after a week) was “tests negative for COVID-19” and the “protection of infected cells from cytopathic effects caused by Influenza A (H1N1)” value [4] was “more than 80%”. For the same compound, the “absorbance intensity at 350 nm and 450 nm bands on addition of G4 RNA” value [5] was “decreased”, the side effects (COVID-19 and influenza) was “No side effects” and the prevention outcome (COVID-19 and influenza; person) was “without getting sick”. The “positive CD peak at 262 nm (parallel G-quadruplex structure)” value (RET G4; in the presence of quinacrine) was “not affected” and the “melting temperature (Tm) of the RET G4 structure” value (RET G4; quinacrine 5 equivalent, increasing temperatures) was “significantly increased”.
